Columns and labels:
Assay type in all cases: in vivo
[1] = system: Digitaria sanguinalis (DIGSA); assay: Biological Example 3 (Test 2 glasshouse assay), post-emergence herbicidal activity
Experimental: (§1) Seeds of a variety of monocotyledonous and dicotyledonous test plants are sown in standard soil in pots. The plants are cultivated for one day (for pre-emergence) or for about 12 days (range=10-13 days) (for post-emergence) under controlled conditions in a glasshouse (warm climate species at 24/18° C., cool climate species at 20/16° C., both at day/night; 16 hours light; 65% humidity).
(§2) An “instant formulation”, known as the “IF50”, containing 50 g/litre (i.e. 5% w/v) of the “technical” (i.e. unformulated) active ingredient is prepared by dissolving the active ingredient in a mixture of organic solvents and emulsifier, details of which are provided in the Table below. This IF50 is then mixed with a small, variable amount of acetone to aid dissolution, before addition of a 0.2% v/v aqueous solution of the adjuvant X-77 (which is a mixture of alkyl aryl polyoxyethylene glycols and free fatty acids in isopropanol, CAS Registry number 11097-66-8), as the aqueous diluent, to form an aqueous spray solution which contains a predetermined concentration of the active ingredient (which varies depending on the application rate of the active ingredient to the plants) and 0.2% v/v of the adjuvant X-77. This aqueous spray solution is then sprayed onto the plants, after one day's cultivation (for pre-emergence) or after about 12 days' cultivation (for post-emergence).
(§3) The test plants are then grown on, in a glasshouse (greenhouse) under controlled conditions (at either 24/18° C. or 20/16° C. (day/night) as mentioned above; 16 hours light; 65% humidity) and are watered twice daily. Either 15 days after application of the test compound (15 DAA) (for post-emergence), or 20 days after application of the test compound (20 DAA) (for pre-emergence), the test plants are evaluated visually, and an assessed percentage phytotoxicity score is given for each compound application on each plant species (where 100%=total damage to plant; 0%=no damage to plant).
(§4) Cool climate crop plants: Triticum aestivum (TRZAW, winter wheat), Brassica napus (BRSNN, rape, also called oilseed rape or rapeseed), Beta vulgaris (BEAVA, sugar beet). Warm climate crop plants: Glycine max (GLXMA, soybean). Cool climate (“cool season”) grassy monocotyledonous weeds: Alopecurus myosuroides (ALOMY), Avena fatua (AVEFA), Lolium perenne (LOLPE). Warm climate (“warm season”) grassy monocotyledonous weeds: Setaria faberi (SETFA), SORVU (Sorghum bicolor (L.) Moench ssp. Bicolor, or Sorghum vulgare Pers.), Digitaria sanguinalis (DIGSA), Echinochloa crus-galli (ECHCG), and Brachiaria plantaginea (BRAPL).

[2] = system: Echinochloa crus-galli (ECHCG); assay: as above
Experimental: as §1, §2, §3, §4

[3] = system: Beta vulgaris (BEAVA, sugar beet); assay: as above
Experimental: as §1, §2, §3, §4

[4] = system: Brassica napus (BRSNN, rape); assay: as above
Experimental: as §1, §2, §3, §4

Lolium perenne (LOLPE) = assay: as above
Experimental: as §1, §2, §3, §4

Setaria faberi (SETFA) = assay: as above
Experimental: as §1, §2, §3, §4

[5] = system: Triticum aestivum (TRZAW, winter wheat); assay: as above
Experimental: as §1, §2, §3, §4

[6] = system: Glycine max (GLXMA, soybean); assay: as above
Experimental: as §1, §2, §3, §4

[7] = system: Brachiaria plantaginea (BRAPL); assay: as above
Experimental: as §1, §2, §3, §4

[8] = system: SORVU (Sorghum bicolor (L.) Moench ssp. Bicolor, or Sorghum vulgare Pers.); assay: as above
Experimental: as §1, §2, §3, §4

[9] = system: Alopecurus myosuroides (ALOMY); assay: as above
Experimental: as §1, §2, §3, §4

[10] = system: Abutilon theophasti Medik. (ABUTH); assay: Test 1A glasshouse assay, pre-emergence herbicidal activity; conditions: 312 h, 250 g/ha, 13 days after application, read-out: Pre-Emergence Herbicidal Activity (% Phytotoxicity) ABUTH
Experimental: Seeds of a variety of test species are sown in standard soil (usually sandy soil) in pots. After cultivation for one day (pre-emergence) or after 8 days cultivation (post-emergence) under controlled conditions in a glasshouse (at 24/16° C., day/night; 14 hours light; 65% humidity), the plants are sprayed with an aqueous spray solution derived from the formulation of the technical active ingredient (compound) in acetone/water (50:50) solution containing 0.5% Tween 20 (polyoxyethylene sorbitan monolaurate, CAS RN 9005-64-5). The test plants are then grown under controlled conditions in a glasshouse (at 24/16° C., day/night; 14 hours light; 65% humidity) and watered twice daily. 13 days after application of the test compounds, for pre- and post-emergence, the test is evaluated visually for percentage phytotoxicity to each plant (where 100%=total damage to plant; 0%=no damage to plant).
Alopecurus myosuroides (ALOMY), Setaria faberi (SETFA), Echinochloa crus-galli (ECHCG), Amaranthus retroflexus (AMARE), and Abutilon theophasti Medik. (ABUTH, common English name “velvetleaf”). Of these, Alopecurus myosuroides (ALOMY), Setaria faberi (SETFA), and Echinochloa crus-galli (ECHCG) are grassy monocotyledonous weeds.

[11] = system: Echinochloa crus-galli (ECHCG); assay: Test 1A glasshouse assay, post-emergence herbicidal activity; conditions: 312 h, 13 days after application, read-out: Post-Emergence Herbicidal Activity (% Phytotoxicity) ECHCG
[12] = system: Alopecurus myosuroides (ALOMY); assay: as above; conditions: 312 h, 13 days after application, read-out: Post-Emergence Herbicidal Activity (% Phytotoxicity) ALOMY

Row | Structure (SMILES) | Post-Emergence Herbicidal Activity (Percentage Phytotoxicity) DIGSA ([1]; 8 g/ha (rate by row order)) | Post-Emergence Herbicidal Activity (Percentage Phytotoxicity) DIGSA ([1]; 30 g/ha (rate by row order)) | Post-Emergence Herbicidal Activity (Percentage Phytotoxicity) DIGSA ([1]; 125 g/ha (rate by row order)) | Post-Emergence Herbicidal Activity (Percentage Phytotoxicity) ECHCG ([2]; 8 g/ha (rate by row order)) | Post-Emergence Herbicidal Activity (Percentage Phytotoxicity) ECHCG ([2]; 30 g/ha (rate by row order)) | Post-Emergence Herbicidal Activity (Percentage Phytotoxicity) ECHCG ([2]; 125 g/ha (rate by row order)) | Post-Emergence Herbicidal Activity (Percentage Phytotoxicity) BEAVA ([3]; 8 g/ha) | Post-Emergence Herbicidal Activity (Percentage Phytotoxicity) BEAVA ([3]; 30 g/ha) | Post-Emergence Herbicidal Activity (Percentage Phytotoxicity) BEAVA ([3]; 125 g/ha) | Post-Emergence Herbicidal Activity (Percentage Phytotoxicity) BRSNN ([4]; 8 g/ha) | Post-Emergence Herbicidal Activity (Percentage Phytotoxicity) BRSNN ([4]; 30 g/ha) | Post-Emergence Herbicidal Activity (Percentage Phytotoxicity) BRSNN ([4]; 125 g/ha) | Post-Emergence Herbicidal Activity (Percentage Phytotoxicity) LOLPE (Lolium perenne (LOLPE); 8 g/ha) | Post-Emergence Herbicidal Activity (Percentage Phytotoxicity) LOLPE (Lolium perenne (LOLPE); 30 g/ha) | Post-Emergence Herbicidal Activity (Percentage Phytotoxicity) LOLPE (Lolium perenne (LOLPE); 125 g/ha) | Post-Emergence Herbicidal Activity (Percentage Phytotoxicity) SETFA (Setaria faberi (SETFA); 8 g/ha (rate by row order)) | Post-Emergence Herbicidal Activity (Percentage Phytotoxicity) SETFA (Setaria faberi (SETFA); 30 g/ha (rate by row order)) | Post-Emergence Herbicidal Activity (Percentage Phytotoxicity) SETFA (Setaria faberi (SETFA); 125 g/ha (rate by row order)) | Post-Emergence Herbicidal Activity (Percentage Phytotoxicity) TRZAW ([5]; 8 g/ha) | Post-Emergence Herbicidal Activity (Percentage Phytotoxicity) TRZAW ([5]; 30 g/ha) | further results
1 | CC#Cc1cc(C)c(-c2c(OC(=O)C(C)(C)C)n(C)n(C)c2=O)c(C)c1 [Compound P1] | 80% | 90% | 100% | 20% | 70% | 100% | 30% | 10% | 40% | 0% | 80% | 80% | 30% | 50% | 80% | 20% | 90% | 100% | 0% | 0% | Post-Emergence Herbicidal Activity (Percentage Phytotoxicity) TRZAW ([5]; 125 g/ha): 70%; Post-Emergence Herbicidal Activity (Percentage Phytotoxicity) GLXMA ([6]; 8 g/ha): 10%; Post-Emergence Herbicidal Activity (Percentage Phytotoxicity) GLXMA ([6]; 30 g/ha): 30%; Post-Emergence Herbicidal Activity (Percentage Phytotoxicity) GLXMA ([6]; 125 g/ha): 40%; Post-Emergence Herbicidal Activity (Percentage Phytotoxicity) BRAPL ([7]; 8 g/ha (rate by row order)): 60%; Post-Emergence Herbicidal Activity (Percentage Phytotoxicity) BRAPL ([7]; 30 g/ha (rate by row order)): 70%; Post-Emergence Herbicidal Activity (Percentage Phytotoxicity) BRAPL ([7]; 125 g/ha (rate by row order)): 100%; Post-Emergence Herbicidal Activity (Percentage Phytotoxicity) SORVU ([8]; 8 g/ha (rate by row order)): 50%; Post-Emergence Herbicidal Activity (Percentage Phytotoxicity) SORVU ([8]; 30 g/ha (rate by row order)): 60%; Post-Emergence Herbicidal Activity (Percentage Phytotoxicity) SORVU ([8]; 125 g/ha (rate by row order)): 80%; Post-Emergence Herbicidal Activity (Percentage Phytotoxicity) ALOMY ([9]; 8 g/ha): 40%; Post-Emergence Herbicidal Activity (Percentage Phytotoxicity) ALOMY ([9]; 30 g/ha): 60%; Post-Emergence Herbicidal Activity (Percentage Phytotoxicity) ALOMY ([9]; 125 g/ha): 70%; inhibition at 250 g/ha [10]: 10%; inhibition at 30 g/ha [11]: 80%; inhibition at 250 g/ha [11]: 100%; inhibition at 30 g/ha [12]: 80%; inhibition at 250 g/ha [12]: 90%
2 | CC#Cc1cc(C)c(-c2c(OC(=O)C(C)(C)C)n3n(c2=O)CCOCC3)c(C)c1 [Compound P4] | 80% | 90% | 90% | 60% | 90% | 100% | 30% | 40% | 50% | 70% | 80% | 80% | 30% | 40% | 50% | 70% | 80% | 90% | 10% | 40% | Post-Emergence Herbicidal Activity (Percentage Phytotoxicity) TRZAW ([5]; 125 g/ha): 80%; Post-Emergence Herbicidal Activity (Percentage Phytotoxicity) GLXMA ([6]; 8 g/ha): 50%; Post-Emergence Herbicidal Activity (Percentage Phytotoxicity) GLXMA ([6]; 30 g/ha): 60%; Post-Emergence Herbicidal Activity (Percentage Phytotoxicity) GLXMA ([6]; 125 g/ha): 70%; Post-Emergence Herbicidal Activity (Percentage Phytotoxicity) BRAPL ([7]; 8 g/ha (rate by row order)): 90%; Post-Emergence Herbicidal Activity (Percentage Phytotoxicity) BRAPL ([7]; 30 g/ha (rate by row order)): 90%; Post-Emergence Herbicidal Activity (Percentage Phytotoxicity) BRAPL ([7]; 125 g/ha (rate by row order)): 100%; Post-Emergence Herbicidal Activity (Percentage Phytotoxicity) SORVU ([8]; 8 g/ha (rate by row order)): 70%; Post-Emergence Herbicidal Activity (Percentage Phytotoxicity) SORVU ([8]; 30 g/ha (rate by row order)): 80%; Post-Emergence Herbicidal Activity (Percentage Phytotoxicity) SORVU ([8]; 125 g/ha (rate by row order)): 100%; Post-Emergence Herbicidal Activity (Percentage Phytotoxicity) ALOMY ([9]; 8 g/ha): 20%; Post-Emergence Herbicidal Activity (Percentage Phytotoxicity) ALOMY ([9]; 30 g/ha): 60%; Post-Emergence Herbicidal Activity (Percentage Phytotoxicity) ALOMY ([9]; 125 g/ha): 70%; inhibition at 250 g/ha [10]: 80%; inhibition at 30 g/ha [11]: 100%; inhibition at 250 g/ha [11]: 100%; inhibition at 30 g/ha [12]: 70%; inhibition at 250 g/ha [12]: 90%

Reference: patent publication US20160219881A1, “HERBICIDALLY ACTIVE 2-HALOGEN-4-ALKYNYL-PHENYL-PYRAZOLIDINE-DIONE OR PYRROLIDINE-DIONE DERIVATIVES” (SYNGENTA LIMITED, priority 2013, published 2016)
